What was measured:
[1] = tested on: A. mangium immature embryo axes; assay: Embryogenic callus induction from immature embryo axes; type: cell-based, Acacia mangium; conditions: immature embryo axes on MS basal medium
Method: One and half months old immature green pods were collected from twenty-meter high adult A. mangium Willd. trees at Science Park Drive of Singapore. Green seeds were gently isolated from pods and washed with sterile double deionized water (ddH2O) 4-5 times. After green seeds were surface sterilised with 30% market clorox bleach (NaClO) for 5 minutes and washed with sterile ddH2O 5 times, the seeds were sterilised again with 0.1% HgCl2 for 6 minutes and washed with sterile ddH2O 5 times. Seed coats were removed with sterilised forceps and embryos were isolated. Embryo axes (EA) (FIG. 1A) were gently separated with sterile forceps and used as explants for embryogenic callus induction.
All media were adjusted to pH 5.8 after autoclaving at 121° C. for 25 min. Plant growth regulators tested in experiments were added into media after autoclaving but other additional substances were added into media before autoclaving. All cultures were maintained under the warm white fluorescent lights at a range of irradiance of 23.41-26.01 μmol.s^−1m^−2, with 16 h photoperiod and at 28° C. […]

globular somatic embryos = assay: Somatic embryo maturation (two-step maturation procedure); type: cell-based, Acacia mangium; conditions: ½ MS maturation media
Method: All media were adjusted to pH 5.8 after autoclaving at 121° C. for 25 min. Plant growth regulators tested in experiments were added into media after autoclaving but other additional substances were added into media before autoclaving. All cultures were maintained under the warm white fluorescent lights at a range of irradiance of 23.41-26.01 μmol.s^−1m^−2, with 16 h photoperiod and at 28° C.
Globular embryos (FIGS. 1B-C) induced from induction medium containing IAA 0.25 mg/l and TDZ 2.0 mg/l (AM-304) were cultured on ½ MS basal medium supplemented with 0-5.0 mg/l of GA3, 30-50 g/l of sucrose, Vc 100 mg/l, Asn 150 mg/l, CH 100 mg/l, Gln 150 mg/l, Pro 150 mg/l, phytagel 0.35% (g/l), and activated charcoal 0.1% for thirty days. Somatic embryos were then transferred onto maturation medium AM-425 and cultured for 40 days. Cotyledon somatic embryos (mature somatic embryos) were then transferred onto the medium AM-424 for germination. Each experiment was repeated twice with a total of 250 globular somatic embryos for each medium combination. Seedlings were transferred to ½ MS basal medium containing sucrose 20 g/l as well as phytagel 0.35% and cultured for two months before being transferred to pot soil consisting of peat soil: sand (3:1). […]

SMILES | embryogenic callus induction / somatic embryogenesis (result in words) [1] | development of globular somatic embryos to torpedo and cotyledon stage (result in words) (globular somatic embryos)
O=C(Nc1ccccc1)Nc1cnns1 [TDZ, 1-Phenyl-3-(1,2,3-thiadiazol-5-yl)Urea] | effective to induce embryogenic callus | 
C=C1C[C@]23C[C@@]1(O)CC[C@H]2[C@@]12C=C[C@H](O)[C@@](C)(C(=O)O1)[C@H]2[C@@H]3C(=O)O [GA3, Gibberellic Acid] |  | promoted somatic embryo maturation
